In assay [1] the target is T1, Dual specificity protein phosphatase 6 (Rattus norvegicus, UniProt Q64346).
T1 sequence (Q64346 whole entry): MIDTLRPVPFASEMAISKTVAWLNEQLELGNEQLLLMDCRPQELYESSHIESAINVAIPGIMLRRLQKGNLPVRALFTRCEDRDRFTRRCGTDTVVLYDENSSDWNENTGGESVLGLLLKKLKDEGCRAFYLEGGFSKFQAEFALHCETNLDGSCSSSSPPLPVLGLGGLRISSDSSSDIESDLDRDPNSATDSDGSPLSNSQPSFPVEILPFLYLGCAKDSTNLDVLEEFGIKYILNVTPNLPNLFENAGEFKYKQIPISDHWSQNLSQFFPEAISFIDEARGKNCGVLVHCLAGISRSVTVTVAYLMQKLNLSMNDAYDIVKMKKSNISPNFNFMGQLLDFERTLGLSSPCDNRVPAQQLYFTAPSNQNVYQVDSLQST

Assay [2] addresses T1, Dual specificity protein phosphatase 6. The class given is functional.
For assay [3], the target named is T2, Dual specificity protein phosphatase 3 (Homo sapiens, UniProt P51452). The experiment in a line: MOA VHR1 Fluorescent secondary assay for identification of redox-state modulating compounds. [Related pubchem assays (depositor defined):AID1654, AID1661, AID1878, AID1957].
T2 sequence (P51452 whole entry): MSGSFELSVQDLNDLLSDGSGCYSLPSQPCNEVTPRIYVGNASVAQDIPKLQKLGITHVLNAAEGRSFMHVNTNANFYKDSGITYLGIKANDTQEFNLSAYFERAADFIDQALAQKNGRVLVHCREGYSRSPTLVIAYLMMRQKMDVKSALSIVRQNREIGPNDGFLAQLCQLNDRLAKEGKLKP
Assay [4] addresses Glyceraldehyde-3-phosphate dehydrogenase (Homo sapiens, UniProt P04406).
Assay [5] has as its target T3, Tyrosine-protein phosphatase non-receptor type 7 (Homo sapiens, UniProt P35236).
T3 sequence (P35236 whole entry): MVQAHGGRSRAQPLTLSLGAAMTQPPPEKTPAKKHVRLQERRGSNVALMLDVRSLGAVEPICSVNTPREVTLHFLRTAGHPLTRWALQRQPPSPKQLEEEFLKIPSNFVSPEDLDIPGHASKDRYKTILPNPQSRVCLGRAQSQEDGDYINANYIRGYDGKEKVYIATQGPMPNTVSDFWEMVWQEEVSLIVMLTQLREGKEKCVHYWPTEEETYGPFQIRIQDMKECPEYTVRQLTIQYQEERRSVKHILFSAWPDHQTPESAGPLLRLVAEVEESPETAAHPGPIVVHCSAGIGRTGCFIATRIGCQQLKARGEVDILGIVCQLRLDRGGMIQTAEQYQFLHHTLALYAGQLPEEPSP
The experiment in a line: redox-dependent HePTP inhibition, mechanism study, biochemical, fluorescence (AID 2068). The class given is functional.

Assay [6] deals with T2, Dual specificity protein phosphatase 3. The assay can be described thus: SAR VHR1 Fluorescent Assay for In Vitro dose response studies. [Related pubchem assays (depositor defined):AID1654, AID1661, AID1878, AID1992, AID2004, AID2070, AID2085]. The class given is functional.
Assay [7] addresses T3, Tyrosine-protein phosphatase non-receptor type 7. The class given is functional.
The target of assay [8] is Acyl-homoserine lactone acylase PvdQ (Pseudomonas aeruginosa (strain LESB58), UniProt Q9I194). The assay can be described thus: P. aeruginosa PvdQ acylase inhibitors, dose response, biochemical, fluorescence, plate reader and imaging, cherry-picks (AID 493231).
Acyl-homoserine lactone acylase PvdQ, sequence (Q9I194 24-193 limits assumed): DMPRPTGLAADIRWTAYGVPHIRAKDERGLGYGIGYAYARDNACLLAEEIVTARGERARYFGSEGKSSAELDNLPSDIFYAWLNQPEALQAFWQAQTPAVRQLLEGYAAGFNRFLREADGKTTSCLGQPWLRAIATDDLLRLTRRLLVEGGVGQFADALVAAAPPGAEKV
Acyl-homoserine lactone acylase PvdQ, sequence (Q9I194 217-762 limits assumed): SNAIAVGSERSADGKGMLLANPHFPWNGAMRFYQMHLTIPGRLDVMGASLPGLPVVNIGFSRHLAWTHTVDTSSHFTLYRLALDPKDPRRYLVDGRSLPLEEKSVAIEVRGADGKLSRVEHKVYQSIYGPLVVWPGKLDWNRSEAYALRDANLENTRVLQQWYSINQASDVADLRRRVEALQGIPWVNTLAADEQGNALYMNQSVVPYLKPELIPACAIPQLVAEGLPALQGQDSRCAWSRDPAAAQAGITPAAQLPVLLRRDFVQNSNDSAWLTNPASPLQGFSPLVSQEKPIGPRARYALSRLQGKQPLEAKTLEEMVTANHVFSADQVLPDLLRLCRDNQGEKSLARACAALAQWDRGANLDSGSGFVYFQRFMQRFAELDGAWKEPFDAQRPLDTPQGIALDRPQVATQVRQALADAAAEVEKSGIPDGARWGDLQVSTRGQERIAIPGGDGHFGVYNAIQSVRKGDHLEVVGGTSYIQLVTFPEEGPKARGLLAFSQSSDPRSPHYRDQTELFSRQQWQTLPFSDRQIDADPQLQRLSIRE
A further assay has as its target Oxytocin receptor (Homo sapiens, UniProt P30559). The assay can be described thus: Fluorescence-based cell-based high throughput dose response assay for agonists of the Oxytocin Receptor (OXTR). [Related pubchem assays: 2435 (Primary screen (OXTR agonists in singlicate)), 434991 (Counterscreen (V1R agonists in triplicate)), 2482 (Summary (OXTR agonists)), 434963 (Confirmation screen (OXTR agonists in triplicate))]. The class given is functional. (In general: Counterscreens check selectivity or assay interference.)

The target of a further assay is Vasopressin V1a receptor (Homo sapiens, UniProt P37288). The experiment in a line: Counterscreen for Oxytocin Receptor (OXTR) agonists: Fluorescence-based cell-based high throughput dose response assay to identify agonists of the vasopressin 1 receptor (V1R). [Related pubchem assays: 2435 (Primary screen (OXTR agonists in singlicate)), 434991 (Counterscreen (V1R agonists in triplicate)), 2482 (Summary (OXTR agonists)) …. The assay is classed as functional.
Vasopressin V1a receptor, sequence (P37288 whole entry): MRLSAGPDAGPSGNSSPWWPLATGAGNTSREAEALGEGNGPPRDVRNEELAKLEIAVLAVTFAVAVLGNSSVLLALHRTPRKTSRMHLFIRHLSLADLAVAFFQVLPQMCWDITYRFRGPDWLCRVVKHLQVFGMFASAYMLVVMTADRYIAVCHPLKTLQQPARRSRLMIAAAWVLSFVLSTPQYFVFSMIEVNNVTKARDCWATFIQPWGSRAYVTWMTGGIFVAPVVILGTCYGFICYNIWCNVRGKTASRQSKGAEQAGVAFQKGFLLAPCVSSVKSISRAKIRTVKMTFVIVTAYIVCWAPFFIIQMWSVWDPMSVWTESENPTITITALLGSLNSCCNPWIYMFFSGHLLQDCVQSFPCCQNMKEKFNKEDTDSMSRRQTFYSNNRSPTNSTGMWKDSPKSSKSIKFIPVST

Assay [9] concerns the target T4, Adenosylmethionine-8-amino-7-oxononanoate aminotransferase (Mycobacterium tuberculosis, UniProt P9WQ81).
T4 sequence (P9WQ81 whole entry): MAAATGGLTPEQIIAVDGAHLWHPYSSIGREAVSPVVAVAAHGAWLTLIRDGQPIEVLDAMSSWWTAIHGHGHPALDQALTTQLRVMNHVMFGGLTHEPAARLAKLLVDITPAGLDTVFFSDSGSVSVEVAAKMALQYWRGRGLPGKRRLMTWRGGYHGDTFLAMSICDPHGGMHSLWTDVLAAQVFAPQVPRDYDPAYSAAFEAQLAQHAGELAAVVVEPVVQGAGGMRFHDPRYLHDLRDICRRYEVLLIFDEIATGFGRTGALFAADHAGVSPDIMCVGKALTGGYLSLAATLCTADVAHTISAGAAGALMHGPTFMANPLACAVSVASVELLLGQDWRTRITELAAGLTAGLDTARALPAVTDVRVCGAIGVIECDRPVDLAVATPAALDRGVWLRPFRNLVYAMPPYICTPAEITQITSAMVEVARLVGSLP
The assay can be described thus: Mycobacterium tuberculosis BioA enzyme inhibitor Measured in Biochemical System Using Plate Reader - 2163-02_Inhibitor_Dose_CherryPick_Activity. The class given is functional, Mycobacterium tuberculosis UT205.

The target of the next assay is T5, Hexokinase HKDC1 (Homo sapiens, UniProt Q2TB90).
T5 sequence (Q2TB90 whole entry): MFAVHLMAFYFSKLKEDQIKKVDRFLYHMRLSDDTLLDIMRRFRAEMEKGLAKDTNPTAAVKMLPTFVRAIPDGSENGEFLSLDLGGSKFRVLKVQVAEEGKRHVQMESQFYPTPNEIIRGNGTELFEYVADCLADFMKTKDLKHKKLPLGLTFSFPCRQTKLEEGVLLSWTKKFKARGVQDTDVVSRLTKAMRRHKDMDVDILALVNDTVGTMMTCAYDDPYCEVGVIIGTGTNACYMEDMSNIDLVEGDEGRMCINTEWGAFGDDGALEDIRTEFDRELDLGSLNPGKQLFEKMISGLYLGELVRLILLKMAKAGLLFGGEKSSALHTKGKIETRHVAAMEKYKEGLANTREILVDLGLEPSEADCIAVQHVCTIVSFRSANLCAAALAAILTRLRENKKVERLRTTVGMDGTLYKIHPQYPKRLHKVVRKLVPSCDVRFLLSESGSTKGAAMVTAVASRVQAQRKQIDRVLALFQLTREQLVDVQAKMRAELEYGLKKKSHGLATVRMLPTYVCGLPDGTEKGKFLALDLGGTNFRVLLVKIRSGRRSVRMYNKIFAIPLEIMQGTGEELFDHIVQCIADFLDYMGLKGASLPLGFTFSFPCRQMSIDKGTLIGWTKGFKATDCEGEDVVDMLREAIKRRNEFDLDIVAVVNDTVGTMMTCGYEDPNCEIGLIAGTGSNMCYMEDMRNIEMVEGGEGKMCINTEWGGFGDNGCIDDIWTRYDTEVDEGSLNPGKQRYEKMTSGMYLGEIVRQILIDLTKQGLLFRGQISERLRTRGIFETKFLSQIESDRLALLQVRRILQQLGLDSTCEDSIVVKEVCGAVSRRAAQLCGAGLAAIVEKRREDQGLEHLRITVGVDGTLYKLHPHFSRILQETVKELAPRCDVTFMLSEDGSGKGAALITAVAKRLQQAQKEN
The assay can be described thus: HKDC1 hexokinase inhibitors, dose response, biochemical, W721R variant (AID 504729). The class given is functional.

Activity calls are given as the source filed them.

Oxytocin receptor, sequence (P30559 whole entry): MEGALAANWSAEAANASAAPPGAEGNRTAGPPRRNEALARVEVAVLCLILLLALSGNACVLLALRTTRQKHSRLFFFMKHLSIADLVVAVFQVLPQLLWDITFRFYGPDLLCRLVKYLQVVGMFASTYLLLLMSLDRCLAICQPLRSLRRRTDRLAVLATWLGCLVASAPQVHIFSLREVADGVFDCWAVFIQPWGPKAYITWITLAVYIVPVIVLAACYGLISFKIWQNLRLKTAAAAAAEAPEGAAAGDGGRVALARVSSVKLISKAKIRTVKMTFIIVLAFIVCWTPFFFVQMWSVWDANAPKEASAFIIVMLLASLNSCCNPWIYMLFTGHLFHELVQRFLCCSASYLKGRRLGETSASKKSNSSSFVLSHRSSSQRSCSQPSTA
Glyceraldehyde-3-phosphate dehydrogenase, sequence (P04406 whole entry): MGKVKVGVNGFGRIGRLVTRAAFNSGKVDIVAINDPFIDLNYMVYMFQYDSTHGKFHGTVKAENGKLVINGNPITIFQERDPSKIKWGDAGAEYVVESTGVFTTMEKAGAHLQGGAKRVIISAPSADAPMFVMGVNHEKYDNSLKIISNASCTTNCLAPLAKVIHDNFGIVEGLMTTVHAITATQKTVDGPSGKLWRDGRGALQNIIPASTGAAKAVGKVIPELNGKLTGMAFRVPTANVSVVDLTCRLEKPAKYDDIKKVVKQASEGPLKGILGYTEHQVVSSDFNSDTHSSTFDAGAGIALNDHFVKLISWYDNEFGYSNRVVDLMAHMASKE

As for `O=c1/c(=C/c2ccco2)sc2nc3cc(Br)cnc3n12`, the IC50 in assay [1] was 4.4 µM (active); in assay [2], 6.58 µM (active); in assay [3], 0.345 µM (active); in assay [4], 27.8 µM (active); in assay [5] it was 0.127 µM (active); in assay [6] it was 1.23 µM (active). For the same molecule, the IC50 in [7] is 0.543 µM (active).
Turning to `N#CC(c1ccc(Cl)cc1)c1cccc(Cl)n1` (configuration not stated), the AC50 in [8] is 0.5 µM (active).
For `Cc1cc(-c2nnc(SCC(=O)Nc3ccccc3C(F)(F)F)o2)c(C)n1-c1ccccc1`, the EC50 on Oxytocin receptor and on Vasopressin V1a receptor was > 29.9 µM (not active) in each case.
As for `O=C(CSc1nnc(-c2cccnc2)[nH]1)Nc1ccnc2ccccc12`, the AC50 in assay [9] is 6.07 µM (active). Further, the IC50 at Hexokinase HKDC1 is 13.1 µM (active).

A word on the IC50: it is the concentration that inhibits the measured activity by half. For orientation: AC50 means the concentration giving half of the maximal activity seen. As a reminder, the EC50 is the midpoint of the concentration-response curve.

(Values after ChEMBL document CHEMBL1201862, “PubChem BioAssay data set” (2004).)
